The nature of data set [1]: log P by HPLC on reversed-phase column (C18). The data set is classed as physicochemical. The note with it: LC-UV. As for the experimental part:
log P Values The log P values were determined according to EEC Directive 79/831 Annex V.A8 by HPLC (high-performance liquid chromatography) on a reversed-phase column (C18) using the following methods: ^[a] […] Calibration was carried out using straight-chain alkan-2-ones (having 3 to 16 carbon atoms) with known log P values. The values between successive alkanones are determined by linear regression.

The subject of the next data set is Diabrotica balteata. Briefly: Diabrotica balteata spray test. The data set is classed as in vivo. The note with it: wheat grains, after 7 days; for pest or weed control at 100 g/ha / pest or weed control at 125 g/ha: Diabrotica balteata, 168 h, read-out: efficacy; for pest or weed control at 125 g/ha: 125 g/ha (=40 μg/cavity). An excerpt:
Diabrotica balteata—Spray Test Solvent: 78 parts by weight of acetone • • 1.5 parts by weight of dimethylformamide Emulsifier: alkylaryl polyglycol ether An appropriate active ingredient formulation is produced by dissolving 1 part by weight of active ingredient with the stated parts by weight of solvent and making the solution up to the desired concentration with water containing an emulsifier concentration of 1000 ppm. Further test concentrations are produced by diluting the formulation with emulsifier-containing water. Pre-swollen wheat grains (Triticum aestivum) are incubated in a multiwell plate filled with agar and a little water for one day (5 seed grains per cavity). The germinated wheat grains are sprayed with an active ingredient formulation of the desired concentration. Subsequently, each cavity is infected with 10-20 beetle larvae of Diabrotica balteata. After 7 days, efficacy in % is determined. 100% means that all wheat plants have grown as in the untreated, uninfected control; 0% means that no wheat plant has grown.

Another data set has as its system Spodoptera frugiperda. Put plainly: Spodoptera frugiperda spray test (maize leaf discs). The class given is in vivo. To be noted: after 7 days; for pest or weed control at 100 g/ha: Spodoptera frugiperda, foliar, 168 h, read-out: efficacy. An excerpt: Spodoptera Frusiperda—Spray Test Solvent: 78.0 parts by weight of acetone • • 1.5 parts by weight of dimethylformamide Emulsifier: alkylaryl polyglycol ether An appropriate active ingredient formulation is produced by dissolving 1 part by weight of active ingredient with the stated parts by weight of solvent and making the solution up to the desired concentration with water containing an emulsifier concentration of 1000 ppm. Further test concentrations are produced by diluting the formulation with emulsifier-containing water. Leaf discs of maize (Zea mays) are sprayed with an active ingredient formulation of the desired concentration and, after drying, populated with caterpillars of the fall armyworm (Spodoptera frugiperda). After 7 days, efficacy in % is determined. 100% means that all the caterpillars have been killed; 0% means that no caterpillar has been killed.

For data set [2], the system named is Nezara viridula. Put plainly: Nezara viridula spray test (plants sprayed, then infected). The class given is in vivo. To be noted: 500 g/ha, barley plants, after 4 days. An excerpt:
(§1) Nezara viridula—Spray Test Solvent: 78.0 parts by weight of acetone • • 1.5 parts by weight of dimethylformamide Emulsifier: alkylaryl polyglycol ether An appropriate active ingredient formulation is produced by dissolving 1 part by weight of active ingredient with the stated parts by weight of solvent and making the solution up to the desired concentration with water containing an emulsifier concentration of 1000 ppm. Further test concentrations are produced by diluting the formulation with emulsifier-containing water. Barley plants (Hordeum vulgare) are sprayed with an active ingredient formulation of the desired concentration and are infected with larvae of the Southern green shield bug (Nezara viridula). After 4 days, efficacy in % is determined. 100% means that all of the shield bugs have been killed; 0% means that none of the shield bugs have been killed.

Another data set concerns Meloidogyne incognita. Put plainly: Meloidogyne incognita test. To be noted: lettuce, gall formation after 14 days; for pest or weed control at 20 ppm: Meloidogyne incognita, 336 h, read-out: nematicidal efficacy. The class given is in vivo. An excerpt: Meloidogyne incognita Test Solvent: 125.0 parts by weight of acetone An appropriate active ingredient formulation is produced by mixing 1 part by weight of active ingredient with the stated amount of solvent and diluting the concentrate to the desired concentration with water. Vessels are filled with sand, active ingredient solution, an egg/larvae suspension of the southern root-knot nematode (Meloidogyne incognita) and lettuce seeds. The lettuce seeds germinate and the plants develop. The galls develop on the roots. After 14 days, the nematicidal efficacy in % is determined by the formation of galls. 100% means that no galls were found; 0% means that the number of galls on the treated plants corresponds to the untreated control.

In data set [3] the test system is Nezara viridula. Put plainly: Nezara viridula spray test (infected barley plants sprayed). The data set is classed as in vivo. To be noted: 100 g ai/ha, after 4 days.
Text: as §1, with “52.5” for “78.0”, “7” for “• 1.5”, “water. If the addition of ammonium salts or/and penetrants is required, these are each added in a concentration of 1000 ppm to the formulation solution.” for “water.”, “vulgare) infected with larvae of the Southern green shield bug (Nezara viridula)” for “vulgare)”, “concentration.” for “concentration and are infected with larvae of the Southern green shield bug (Nezara viridula).”

The test system of a further data set is Myzus persicae. Briefly: Myzus persicae oral test. The data set is classed as in vivo. The note with it: 4 ppm, after 5 days. The method, then: Myzus persicae—Oral Test Solvent: 100 parts by weight of acetone An appropriate active ingredient formulation is produced by dissolving 1 part by weight of active ingredient with the specified parts by weight of solvent and making the solution up to the desired concentration with water. 50 μl of the active ingredient formulation is transferred into microtitre plates and made up to a final volume of 200 μl with 150 μl of IPL41 insect medium (33%+15% sugar). Subsequently, the plates are sealed with parafilm, which a mixed population of green peach aphids (Myzus persicae) within a second microtitre plate is able to puncture and imbibe the solution. After 5 days, efficacy in % is determined. 100% means that all the aphids have been killed; 0% means that no aphids have been killed.

Setting [4] is: neutral range, ammonium acetate/acetonitrile, read-out: log P (neutral).

Like-named read-outs stand apart in the source and are kept apart here.

Take `Cn1c(-c2nc(F)ccc2F)nc2cc(C(F)(F)C(F)(F)F)cnc21` [2-(3,6-Difluoro-2-pyridyl)-3-methyl-6-(1,1,2,2,2-pentafluoroethyl)imidazo[4,5-b]pyridine]: in data set [1] (setting [4]), the chromatographic logP worked out at 3.3.

On to `CCSc1ccc(F)nc1-c1nc2cc(C(F)(F)C(F)(F)F)cnc2n1C` [2-(3-Ethylsulfanyl-6-fluoro-2-pyridyl)-3-methyl-6-(1,1,2,2,2-pentafluoroethyl)imidazo[4,5-b]pyridine], for which the chromatographic logP in data set [1] (acidic range, formic acid/acetonitrile, read-out: log P (acidic)) is 4.05.

With `CCS(=O)(=O)c1ccc(F)nc1-c1nc2cc(C(F)(F)C(F)(F)F)cnc2n1C` [2-(3-Ethylsulfonyl-6-fluoro-2-pyridyl)-3-methyl-6-(1,1,2,2,2-pentafluoroethyl)imidazo[4,5-b]pyridine], the chromatographic logP in data set [1] (setting [4]) was determined as 3.33.

As to `CCS(=O)(=O)c1ccc(-n2ncn(-c3cccc(C4(C#N)CC4)c3)c2=O)nc1-c1nc2cc(C(F)(F)C(F)(F)F)nnc2n1C` [Example I-01], the pest or weed control at 100 g/ha in the data set with Diabrotica balteata (100 g/ha (=32 μg/cavity)) and in the data set on Spodoptera frugiperda was 100% throughout.

For the compound `CCS(=O)(=O)c1ccc(-n2ncn(-c3cccc(C4(C#N)CC4)c3)c2=O)nc1-c1nc2cc(C(F)(F)C(F)(F)F)cnc2n1C` [Example I-04], the efficacy in the data set on Nezara viridula [2] worked out at 100%. The pest or weed control at 100 g/ha in the data set on Diabrotica balteata (100 g/ha (=32 μg/cavity)) and with Spodoptera frugiperda was 100% in each case.

In the case of `CCS(=O)(=O)c1ccc(-n2ncn(-c3ccc(C#N)c(Cl)c3)c2=O)nc1-c1nc2cc(C(F)(F)C(F)(F)F)nnc2n1C` [Example I-05], the pest or weed control at 20 ppm with Meloidogyne incognita was 100%. Besides, the pest or weed control at 100 g/ha with Diabrotica balteata (100 g/ha (=32 μg/cavity)) and in the data set with Spodoptera frugiperda was 100% in each case.

For `CCS(=O)(=O)c1ccc(-n2ncn(-c3ccc(Cl)c(C#N)c3)c2=O)nc1-c1nc2cc(C(F)(F)C(F)(F)F)cnc2n1C` [Example I-07], the pest or weed control at 20 ppm with Meloidogyne incognita worked out at 100%. For the same compound, the efficacy in the data set with Nezara viridula [2] worked out at 100%. Moreover, the pest or weed control at 100 g/ha with Diabrotica balteata (100 g/ha (=32 μg/cavity)) and with Spodoptera frugiperda was 100% throughout.

Regarding `CCS(=O)(=O)c1ccc(-n2ncn(-c3ccc(Cl)c(C#N)c3)c2=O)nc1-c1nc2cc(C(F)(F)C(F)(F)F)nnc2n1C` [Example I-08], in the data set with Meloidogyne incognita, the pest or weed control at 20 ppm came out at 100%. Moreover, the pest or weed control at 100 g/ha in the data set with Diabrotica balteata (100 g/ha (=32 μg/cavity)) and in the data set with Spodoptera frugiperda was 100% each time.

For the compound `CCS(=O)(=O)c1ccc(-n2ncn(-c3ccc(I)cc3)c2=O)nc1-c1nc2cc(C(F)(F)C(F)(F)F)nnc2n1C` [Example I-09], the pest or weed control at 20 ppm in the data set with Meloidogyne incognita was 90%. Besides, the pest or weed control at 100 g/ha with Diabrotica balteata (100 g/ha (=32 μg/cavity)) and in the data set on Spodoptera frugiperda was 100% each time.

As to `CCS(=O)(=O)c1ccc(-n2ncn(-c3ccc(F)cc3)c2=O)nc1-c1nc2cc(C(F)(F)C(F)(F)F)nnc2n1C` [Example I-10], the pest or weed control at 20 ppm in the data set with Meloidogyne incognita turned out to be 100%. Further, the pest or weed control at 100 g/ha in the data set with Diabrotica balteata (100 g/ha (=32 μg/cavity)) and in the data set on Spodoptera frugiperda was 100% throughout.

In the case of `CCS(=O)(=O)c1ccc(-n2ncn(-c3cccc(Br)c3)c2=O)nc1-c1nc2cc(C(F)(F)C(F)(F)F)nnc2n1C` [Example I-11], in the data set with Meloidogyne incognita, the pest or weed control at 20 ppm turned out to be 100%. Moreover, the pest or weed control at 100 g/ha with Diabrotica balteata (100 g/ha (=32 μg/cavity)) is 100%. Moreover, the figures for the efficacy in the data set on Nezara viridula [3] and in the data set with Spodoptera frugiperda (100 g/ha) were 90% and 100%, respectively.

`CCS(=O)(=O)c1ccc(-n2ncn(-c3cccc(Cl)c3)c2=O)nc1-c1nc2cc(C(F)(F)C(F)(F)F)nnc2n1C` [Example I-13]: the pest or weed control at 100 g/ha with Diabrotica balteata (100 g/ha (=32 μg/cavity)) and in the data set on Spodoptera frugiperda was 100% throughout. The same compound gave an efficacy in the data set with Nezara viridula [3] of 100%.

As for `CCS(=O)(=O)c1ccc(-n2ncn(-c3cccc(Br)c3)c2=O)nc1-c1nc2cc(C(F)(F)C(F)(F)F)nnc2n1C` [Example I-15], the nematicidal efficacy in the data set on Meloidogyne incognita (20 ppm) is 100%. In addition, the efficacy in the data set with Diabrotica balteata (100 g/ha (=32 μg/cavity)) and in the data set with Nezara viridula [3] was 100% throughout. The pest or weed control at 100 g/ha in the data set with Spodoptera frugiperda is 100%.

With `CCS(=O)(=O)c1ccc(-n2ncn(-c3cccc(F)c3)c2=O)nc1-c1nc2cc(C(F)(F)C(F)(F)F)cnc2n1C` [Example I-16], the pest or weed control at 20 ppm with Meloidogyne incognita is 100%. Besides, the pest or weed control at 100 g/ha in the data set with Diabrotica balteata (100 g/ha (=32 μg/cavity)) and in the data set on Spodoptera frugiperda was 100% in each case.

Consider `CCS(=O)(=O)c1ccc(-n2ncn(-c3ccc(C#N)c(Cl)c3)c2=O)nc1-c1nc2cc(C(F)(F)C(F)(F)F)cnc2n1C` [Example I-17], for which the efficacy in the data set on Myzus persicae was 90%. For the same compound, the pest or weed control at 20 ppm with Meloidogyne incognita turned out to be 90%. For the same compound, the pest or weed control at 100 g/ha in the data set on Diabrotica balteata (100 g/ha (=32 μg/cavity)) and in the data set with Spodoptera frugiperda was 100% in each case.

Consider `CCS(=O)(=O)c1ccc(-n2ncn(-c3cccc(I)c3)c2=O)nc1-c1nc2cc(C(F)(F)C(F)(F)F)cnc2n1C` [Example I-18], for which the pest or weed control at 100 g/ha in the data set with Diabrotica balteata (100 g/ha (=32 μg/cavity)) and in the data set with Spodoptera frugiperda was 100% in each case. Moreover, the efficacy with Nezara viridula [3] was 90%.

For the compound `CCS(=O)(=O)c1ccc(-n2ncn(-c3cccc(Cl)c3)c2=O)nc1-c1nc2cc(C(F)(F)C(F)(F)F)cnc2n1C` [Example I-19], the pest or weed control at 100 g/ha in the data set on Diabrotica balteata (100 g/ha (=32 μg/cavity)) and in the data set with Spodoptera frugiperda was 100% each time.

As to `CCS(=O)(=O)c1ccc(-n2ncn(-c3ccc(I)cc3)c2=O)nc1-c1nc2cc(C(F)(F)C(F)(F)F)cnc2n1C` [Example I-20], in the data set on Meloidogyne incognita, the pest or weed control at 20 ppm was 90%. For the same compound, the pest or weed control at 125 g/ha in the data set on Diabrotica balteata was found to be 100%. In addition, in the data set on Nezara viridula [3], the efficacy was determined as 100%. Moreover, in the data set on Spodoptera frugiperda, the pest or weed control at 100 g/ha stood at 100%.

Compound `CCS(=O)(=O)c1ccc(-n2ncn(-c3ccc(C4(C#N)CC4)cc3)c2=O)nc1-c1nc2cc(C(F)(F)C(F)(F)F)nnc2n1C` [Example I-21] yielded an efficacy in the data set with Myzus persicae of 100%. Also, the pest or weed control at 20 ppm in the data set with Meloidogyne incognita was 90%. The pest or weed control at 125 g/ha with Diabrotica balteata stood at 100%. Further, the pest or weed control at 100 g/ha in the data set on Spodoptera frugiperda was found to be 100%.

Consider `CCS(=O)(=O)c1ccc(-n2ncn(-c3ccc(/C=N/OC)cc3)c2=O)nc1-c1nc2cc(C(F)(F)C(F)(F)F)cnc2n1C` [Example I-24], for which the pest or weed control at 100 g/ha in the data set with Diabrotica balteata (100 g/ha (=32 μg/cavity)) and in the data set on Spodoptera frugiperda was 100% throughout.

The values are drawn from patent US20240294533A1, “2-(HET)ARYL-SUBSTITUTED CONDENSED HETEROCYCLE DERIVATIVES AS PEST CONTROL AGENTS” (Bayer Aktiengesellschaft, priority 2021, published 2024).
